Laboratory results as given in patent publication US4546176A, “7-Carboxymethoxyphenylacetamido-3-cephem derivatives and antibacterial preparations containing the same” (Eisai Co., Ltd., priority 1982, dated 1985).
In brackets after ≈: the same amount, converted by molar mass.

Experiments:
[1] = test system: Staph. aureus 209-P; test: Antibacterial activities (MIC), Staph. aureus 209-P; assay type: cell-based; conditions: Staphylococcus aureus
Excerpt: (§1) (1) Antibacterial activities (MIC):

[2] = test system: Escher. coli NIHJ; test: Antibacterial activities (MIC), Escher. coli NIHJ; assay type: cell-based; conditions: Escherichia coli
Excerpt: as §1

[3] = test system: Kleb. pneumoniae EK-6; test: Antibacterial activities (MIC), Kleb. pneumoniae EK-6; assay type: cell-based; conditions: Klebsiella pneumoniae, EK6
Excerpt: as §1

[4] = test system: Proteus morganii EP-14; test: Antibacterial activities (MIC), Proteus morganii EP-14; assay type: cell-based; conditions: Morganella morganii, EP14
Excerpt: as §1

[5] = test system: Pseud. aeruginosa EP-01; test: Antibacterial activities (MIC), Pseud. aeruginosa EP-01; assay type: cell-based; conditions: Pseudomonas aeruginosa, EP01
Excerpt: as §1

[6] = test system: Ser. marcescens ES-75; test: Antibacterial activities (MIC), Ser. marcescens ES-75; assay type: cell-based; conditions: Serratia marcescens, ES75
Excerpt: as §1

[7] = test system: Proteus vulgaris E-18; test: Antibacterial activities (MIC), Proteus vulgaris E-18 (lactamase producing); assay type: cell-based; conditions: E18; Proteus vulgaris E-18, lactamase producing bacteria
Excerpt: as §1
*Lactamase producing bacteria.

[8] = Urinary excretion rate in mice; assay type: in vivo, ICR male mice; conditions: mouse, sc, 20 mg/kg subcutaneous, urine up to 6 hours, bioassay
Method: ICR male mice (body weight: 20-30 g) were used. Each compound was dissolved in an M/15 phosphate buffer (pH 7.0) and administered in an amount of 20 mg/kg by the subcutaneous route. Urine was collected up to 6 hours after the administration. The concentration of the compound was determined by the bioassey technique (the agar-well method) using Pseudomonas aeruginosa as a test microorganism. On the basis of the thus-determined concentration, its excreted amount was obtained. The urinary excretion rate was then calculated from the excreted amount based on the amount administered.

[9] = Solubility in water; assay type: physicochemical; conditions: in distilled water at 25° C.
[10] = Acute toxicity LD50 (mouse, oral); conditions: in vivo
Excerpt: The acute toxicity values [LD50 (mouse, oral)] of the following compounds were each 4 g/kg or greater;

| Compound | MIC [1] | MIC [2] | MIC [3] | MIC [4] | MIC [5] | MIC [6] | MIC [7] | dose excreted at 6 h [8] | solubility [9] | LD50 [10] |
| --- | --- | --- | --- | --- | --- | --- | --- | --- | --- | --- |
| CO[C@@]1(NC(=O)[C@H](NC(=O)c2c(C)oc3cc(OC(C)=O)c(OC(C)=O)cc3c2=O)c2ccc(OCC(=O)O)cc2)C(=O)N2C(C(=O)O)=C(CSc3nnnn3CC(=O)O)CS[C@@H]21 [Example 21] | 100 µg/mL (≈ 110 µM) | 0.4 µg/mL (≈ 0.439 µM) | ≤ 0.05 µg/mL | 3.13 µg/mL (≈ 3.43 µM) | 0.2 µg/mL (≈ 0.219 µM) | 0.1 µg/mL (≈ 0.11 µM) | 0.4 µg/mL (≈ 0.439 µM) |  |  |  |
| CO[C@@]1(NC(=O)[C@H](NC(=O)c2c(C)oc3c(OC(C)=O)c(OC(C)=O)ccc3c2=O)c2ccc(OCC(=O)O)cc2)C(=O)N2C(C(=O)O)=C(CSc3nnnn3CC(=O)O)CS[C@@H]21 [Example 24, 7β-[D-2-(4-Carboxymethoxyphenyl)-2-(7,8-diacetoxy-2-methyl-4-oxo-4H-1-benzopyran-3-carboxamido)-acetamido]-7α-methoxy-3-(1-carboxymethyl-4-tetrazolyl)thiomethyl-3-cephem-4-carboxylic acid] | 100 µg/mL (≈ 110 µM) | 0.8 µg/mL (≈ 0.877 µM) | ≤ 0.05 µg/mL | 12.5 µg/mL (≈ 13.7 µM) | 0.8 µg/mL (≈ 0.877 µM) | 0.8 µg/mL (≈ 0.877 µM) | 3.13 µg/mL (≈ 3.43 µM) |  |  |  |
| CO[C@@]1(NC(=O)[C@H](NC(=O)c2c(C)oc3cc(O)c(O)cc3c2=O)c2ccc(OCC(=O)O)cc2)C(=O)N2C(C(=O)O)=C(CSc3nnnn3CC(=O)O)CS[C@@H]21 [Example 25] | 100 µg/mL (≈ 121 µM) | 0.4 µg/mL (≈ 0.483 µM) | ≤ 0.05 µg/mL | 3.13 µg/mL (≈ 3.78 µM) | 0.4 µg/mL (≈ 0.483 µM) | 0.1 µg/mL (≈ 0.121 µM) | 0.4 µg/mL (≈ 0.483 µM) | 20% | ≥ 300 mg/mL | ≥ 4000 mg/kg |
| CO[C@@]1(NC(=O)[C@H](NC(=O)c2c(C)oc3c(O)c(O)ccc3c2=O)c2ccc(OCC(=O)O)cc2)C(=O)N2C(C(=O)O)=C(CSc3nnnn3CC(=O)O)CS[C@@H]21 [Example 28, Trisodium 7β-[D-2-(4-carboxymethoxyphenyl)-2-(7,8-dihydroxy-2-methyl-4-oxo-4H-1-benzopyran-3-carboxamido)-acetamido]-7α-methoxy-3-(1-carboxymethyl-5-tetrazolyl)-thiomethyl-3-cephem-4-carboxylate] | 100 µg/mL | 0.8 µg/mL | ≤ 0.05 µg/mL | 6.25 µg/mL | 0.8 µg/mL | 0.8 µg/mL | 3.13 µg/mL | 24% |  |  |
| CO[C@@]1(NC(=O)[C@H](NC(=O)c2coc3cc(O)c(O)cc3c2=O)c2ccc(OCC(=O)O)cc2)C(=O)N2C(C(=O)O)=C(CSc3nnnn3CC(=O)O)CS[C@@H]21 [Example 30, Trisodium 7β-[D-2-(4-carboxymethoxyphenyl)-2-(6,7-dihydroxy-4-oxo-4H-1-benzopyran-3-carboxamido)-acetamido]-7α-methoxy-3-(1-carboxymethyl-5-tetrazolyl)-thiomethyl-3-cephem-4-carboxylate] | 100 µg/mL | 0.8 µg/mL | ≤ 0.05 µg/mL | 6.25 µg/mL | 0.4 µg/mL | 0.2 µg/mL | 0.8 µg/mL |  |  | ≥ 4000 mg/kg |
| CO[C@@]1(NC(=O)[C@H](NC(=O)c2coc3cc(O)c(O)cc3c2=O)c2ccc(OCC(=O)O)cc2)C(=O)N2C(C(=O)O)=C(COC(C)=O)CS[C@@H]21 [Example 31, 7β-[D-2-(4-Carboxymethoxyphenyl)-2-(6,7-dihydroxy-4-oxo-4H-1-benzopyran-3-carboxamido)acetamido]-7α-methoxy-3-acetoxymethyl-3-cephem-4-carboxylic acid] | 50 µg/mL (≈ 70.1 µM) | 0.8 µg/mL (≈ 1.12 µM) | ≤ 0.05 µg/mL | 6.25 µg/mL (≈ 8.76 µM) | 0.4 µg/mL (≈ 0.561 µM) | 0.4 µg/mL (≈ 0.561 µM) | 1.56 µg/mL (≈ 2.19 µM) |  |  |  |
| CO[C@@]1(NC(=O)[C@H](NC(=O)c2c(C)oc3cc(O)c(O)cc3c2=O)c2ccc(OCC(=O)O)cc2)C(=O)N2C(C(=O)O)=C(COC(C)=O)CS[C@@H]21 [Example 33, Disodium 7β-[D-2-(4-carboxymethoxyphenyl)-2-(6,7-dihydroxy-2-methyl-4-oxo-4H-1-benzopyran-3-carboxamido)acetamido]-7α-methoxy-3-acetoxymethyl-3-cephem-4-carboxylate] | 50 µg/mL | 0.8 µg/mL | ≤ 0.05 µg/mL | 12.5 µg/mL | 0.2 µg/mL | 0.8 µg/mL | 1.56 µg/mL |  |  |  |
| CO[C@@]1(NC(=O)[C@H](NC(=O)c2c(C)oc3cc(O)c(O)cc3c2=O)c2ccc(OCC(=O)O)cc2)C(=O)N2C(C(=O)[O-])=C(C[n+]3ccccc3)CS[C@@H]21 [Example 48, Sodium 7β-[D-2-(4-carboxymethoxyphenyl)-2-(6,7-dihydroxy-2-methyl-4-oxo-4H-1-benzopyran-3-carboxamido)acetamido]-7α-methoxy-3-pyridiniummethyl-3-cephem-4-carboxylate] | 100 µg/mL | 0.2 µg/mL | ≤ 0.05 µg/mL | 6.25 µg/mL | 0.2 µg/mL | 0.1 µg/mL | 1.56 µg/mL | 45% | ≥ 300 mg/mL | ≥ 4000 mg/kg |
| CO[C@@]1(NC(=O)[C@H](NC(=O)c2c(C)oc3cc(O)c(O)cc3c2=O)c2ccc(OCC(=O)O)cc2)C(=O)N2C(C(=O)[O-])=C(C[n+]3ccc(C(N)=O)cc3)CS[C@@H]21 [Example 50, Sodium 7β-[D-2-(4-carboxymethoxyphenyl)-2-(6,7-dihydroxy-2-methyl-4-oxo-4H-1-benzopyran-3-carboxamido)acetamido]-7α-methoxy-3-(4-carbamoylpyridinium)methyl-3-cephem-4-carboxylate] | 100 µg/mL | 1.56 µg/mL | 0.1 µg/mL | 12.5 µg/mL | 0.4 µg/mL | 0.8 µg/mL | 3.13 µg/mL |  | ≥ 300 mg/mL | ≥ 4000 mg/kg |
| CO[C@@]1(NC(=O)[C@H](NC(=O)c2coc3cc(O)c(O)cc3c2=O)c2ccc(OCC(=O)O)cc2)C(=O)N2C(C(=O)[O-])=C(C[n+]3ccc(C(N)=O)cc3)CS[C@@H]21 [Example 51, Sodium 7β-[D-2-(4-carboxymethoxyphenyl)-2-(6,7-dihydroxy-4-oxo-4H-1-benzopyran-3-carboxamido)-acetamido]-7α-methoxy-3-(4-carbamoylpyridinium)-methyl-3-cephem-4-carboxylate] | 50 µg/mL | 1.56 µg/mL | ≤ 0.05 µg/mL | 25 µg/mL | 0.4 µg/mL | 0.8 µg/mL | 3.13 µg/mL | 16% | ≥ 300 mg/mL |  |
| CCn1cc(C(=O)N[C@@H](C(=O)N[C@@H]2C(=O)N3C(C(=O)[O-])=C(C[n+]4ccc(C(N)=O)cc4)CS[C@H]23)c2ccc(OCC(=O)O)cc2)c(=O)c2cc(O)c(O)cc21 [Example 53, Sodium 7β-[D-2-(4-carboxymethoxyphenyl)-2-(6,7-dihydroxy-1-ethyl-1,4-dihydro-4-oxoquinoline-3-carboxamido)acetamido]-3-(4-carbamoylpyridinium)-methyl-3-cephem-4-carboxylate] | 50 µg/mL | 0.4 µg/mL | ≤ 0.05 µg/mL | 6.25 µg/mL | 0.2 µg/mL | 0.8 µg/mL |  | 13% | ≥ 300 mg/mL | ≥ 4000 mg/kg |
